Reference: US20240270821A1, “GIP/GLP1/GCG TRI-RECEPTOR AGONISTS AND USES THEREOF” (priority 2023, published 2024)
pEC50: −log10 of the molar value. Like-named read-outs stand apart in the source and are kept apart here. Starred links: 1 amine or outer side, 2 acyl side, 3 side chain; linkers in the order of their positions; H or OH if unused. Non-standard residues stand in square brackets, D forms with d. Groups on a side chain read outwards from the residue. No end group written: not given here. *: point of attachment. C18 diacid = O=C(O)CCCCCCCCCCCCCCCCC(=O)*; αMePhe(2-F) = C[C@](N)(Cc1ccccc1F)C(=O)O; γGlu = O=C(O)[C@H](CCC(=O)[*:2])N[*:1]; αMe4Pal = C[C@](N)(Cc1ccncc1)C(=O)O; αMeY = C[C@](N)(Cc1ccc(O)cc1)C(=O)O; 4Pal = N[C@@H](Cc1ccncc1)C(=O)O; αMeL = CC(C)C[C@](C)(N)C(=O)O; αMeS = C[C@](N)(CO)C(=O)O; Orn = NCCC[C@H](N)C(=O)O; AEEA = NCCOCCOCC(=O)O; Aib = CC(C)(N)C(=O)O

What was measured:
Type in all cases: cell-based
[1] = target: human GcgR (Homo sapiens, UniProt P47871); experiment: Functional cAMP activity in the presence of 1% HSA; settings: read-out: cAMP Rel EC50, hGcgR
[2] = target: hGcgR (Homo sapiens, UniProt P47871); experiment: Functional cAMP activation in the presence of 0.1% casein (no HSA); settings: read-out: Relative cAMP EC50, hGcgR;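 note: intracellular cAMP rise after 30 min at 37 °C, read by HTRF against a cAMP standard curve, scaled from buffer only (0%) to maximal control ligand response (100%)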
[3] = target: T1, hGIPR (Homo sapiens, UniProt P48546); experiment: Functional cAMP activity in the presence of 1% HSA; settings: read-out: cAMP Rel EC50, hGIPR
T1 sequence (P48546 22-466): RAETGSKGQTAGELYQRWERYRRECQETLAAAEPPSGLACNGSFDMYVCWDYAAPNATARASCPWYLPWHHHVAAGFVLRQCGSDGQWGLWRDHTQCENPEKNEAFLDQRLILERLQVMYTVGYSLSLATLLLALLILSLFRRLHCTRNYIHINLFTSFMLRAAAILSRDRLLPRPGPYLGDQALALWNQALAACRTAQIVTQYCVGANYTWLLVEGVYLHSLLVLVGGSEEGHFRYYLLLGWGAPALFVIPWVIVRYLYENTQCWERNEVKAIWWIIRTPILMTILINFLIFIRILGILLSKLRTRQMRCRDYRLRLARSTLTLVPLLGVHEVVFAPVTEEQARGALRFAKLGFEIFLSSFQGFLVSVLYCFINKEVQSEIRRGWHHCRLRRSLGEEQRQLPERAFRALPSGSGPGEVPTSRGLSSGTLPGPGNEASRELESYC

[4] = target: T1, hGIPR; experiment: Functional cAMP activation in the presence of 0.1% casein (no HSA); settings: read-out: Relative cAMP EC50, hGIPR;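 for Relative cAMP EC50, hGIPR: intracellular cAMP rise after 30 min at 37 °C read by HTRF against a standard curve, scaled between buffer alone (0%) and top control ligand concentration (100%), four-parameter fit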;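 for Relative cAMP EC50, hGLP-1R: intracellular cAMP rise after 30 min at 37 °C read by HTRF, normalized between buffer only (0%) and maximal control ligand (100%), four-parameter variable-slope fit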
[5] = target: T2, hGLP-1R (Homo sapiens, UniProt P43220); experiment: as above; settings: read-out: Relative cAMP EC50, hGLP-1R;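 note: intracellular cAMP rise after 30 min at 37 °C read by HTRF, normalized between buffer only (0%) and maximal control ligand (100%), four-parameter variable-slope fit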
[6] = target: T2, hGLP-1R; experiment: Functional cAMP activity in the presence of 1% HSA; settings: read-out: cAMP Rel EC50, hGLP-1R
[7] = HEK-293 clonal cell line, in the presence of 1% HSA, geometric mean of relative EC50
[8] = in the presence of 0.1% casein (no HSA), geometric mean
[9] = 0.1% casein, no HSA, geometric mean

T2 sequence (P43220 24-463): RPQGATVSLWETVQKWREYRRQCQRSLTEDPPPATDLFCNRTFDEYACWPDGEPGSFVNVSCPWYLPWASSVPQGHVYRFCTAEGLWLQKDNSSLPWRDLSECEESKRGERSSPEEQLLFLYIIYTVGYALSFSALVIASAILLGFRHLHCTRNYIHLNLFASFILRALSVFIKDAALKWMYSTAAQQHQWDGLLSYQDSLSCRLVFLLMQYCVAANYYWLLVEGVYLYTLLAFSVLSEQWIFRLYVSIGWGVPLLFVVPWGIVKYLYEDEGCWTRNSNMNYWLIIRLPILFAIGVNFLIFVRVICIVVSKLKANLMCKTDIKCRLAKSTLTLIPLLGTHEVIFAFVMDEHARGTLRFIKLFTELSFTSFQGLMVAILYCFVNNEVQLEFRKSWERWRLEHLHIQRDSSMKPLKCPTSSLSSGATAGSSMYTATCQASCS
Chain of human GcgR (P47871 26-477): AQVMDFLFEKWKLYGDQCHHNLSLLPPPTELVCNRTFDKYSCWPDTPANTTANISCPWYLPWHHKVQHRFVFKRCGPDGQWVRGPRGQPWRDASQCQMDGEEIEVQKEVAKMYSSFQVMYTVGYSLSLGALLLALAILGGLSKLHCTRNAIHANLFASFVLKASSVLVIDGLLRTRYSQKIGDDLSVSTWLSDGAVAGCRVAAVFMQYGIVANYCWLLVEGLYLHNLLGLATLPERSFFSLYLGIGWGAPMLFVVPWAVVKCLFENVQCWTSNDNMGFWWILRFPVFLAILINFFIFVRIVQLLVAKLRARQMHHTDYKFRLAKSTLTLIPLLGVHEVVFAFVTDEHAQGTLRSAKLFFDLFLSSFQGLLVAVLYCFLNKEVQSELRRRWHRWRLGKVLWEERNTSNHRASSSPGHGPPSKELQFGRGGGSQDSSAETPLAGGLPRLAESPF
Chain of hGcgR (P47871 26-477): as above

Y[Aib]QGTFTSD[4Pal]SQ[αMeL]LDKK([γGlu-γGlu-C18 diacid])AQ[αMe4Pal]AFIE[αMe4Pal]LIE[Aib]GPSSGAPPPSGSEE-NH2 [Example 1122]
pEC50 [1, 7]: 6.32
pEC50 [2, 8]: 7.99
pEC50 [3, 7]: 8.34
pEC50 [4, 8]: 9.96
pEC50 [5, 8]: 8.25
pEC50 [6, 7]: 6.75

H-Y[Aib]QGTFTSD[4Pal]SQ[αMeL]LDKK([AEEA-γGlu-C18 diacid])AQ[αMe4Pal]AFIEYLIE[Aib]GPSSGAPPPSSS-NH2 [Example 848]
pEC50 [1]: 6.21
pEC50 [2, 8]: 8.49
pEC50 [3]: 7.69
pEC50 [4, 8]: 9.83
pEC50 [5, 8]: 8.64
pEC50 [6]: 6.50

H-Y[Aib]QGT[αMePhe(2-F)]TSD[4Pal][αMeS]I[αMeL]LD[Orn]K([γGlu-γGlu-C18 diacid])AA[Aib]EFI[dE][αMeY]LVEGGPSSGEPPPSGS-NH2 [Example 695]
pEC50 [1]: 6.79
pEC50 [2]: 8.71
pEC50 [3]: 9.11
pEC50 [4]: 10.87
pEC50 [5]: 9.60
pEC50 [6]: 7.71

H-Y[Aib]QGTFTSD[4Pal]S[Orn][αMeL]LDKK([γGlu-γGlu-C18 diacid])AQ[αMe4Pal]AFIEYLIAGGPSSGAPPPSGSE-NH2 [Example 1009]
pEC50 [1]: 6.57
pEC50 [2, 8]: 8.38
pEC50 [3]: 8.01
pEC50 [4, 8]: 9.89
pEC50 [5, 8]: 8.68
pEC50 [6]: 6.76

CC[C@H](C)[C@H](NC(=O)[C@H](Cc1ccccc1)NC(=O)[C@H](C)NC(=O)C(C)(C)NC(=O)[C@H](CCC(N)=O)NC(=O)[C@H](C)NC(=O)[C@H](CCCCNC(=O)CC[C@H](NC(=O)CC[C@H](NC(=O)CCCCCCCCCCCCCCCCC(=O)O)C(=O)O)C(=O)O)NC(=O)[C@H](CCCCN)NC(=O)[C@H](CC(=O)O)NC(=O)[C@H](CC(C)C)NC(=O)[C@H](CC(C)C)NC(=O)[C@@H](NC(=O)[C@H](CO)NC(=O)[C@H](Cc1ccncc1)NC(=O)[C@H](CC(=O)O)NC(=O)[C@H](CO)NC(=O)[C@@H](NC(=O)[C@](C)(Cc1ccccc1F)NC(=O)[C@@H](NC(=O)CNC(=O)[C@H](CCC(N)=O)NC(=O)C(C)(C)NC(=O)[C@@H](N)Cc1ccc(O)cc1)[C@@H](C)O)[C@@H](C)O)[C@@H](C)CC)C(=O)N[C@@H](CCC(=O)O)C(=O)N[C@@H](Cc1ccc(O)cc1)C(=O)N[C@@H](CC(C)C)C(=O)N[C@@H](CCC(=O)O)C(=O)N[C@@H](CCC(=O)O)C(=O)NCC(=O)NCC(=O)N1CCC[C@H]1C(=O)N[C@@H](CO)C(=O)N[C@@H](CO)C(=O)NCC(=O)N[C@@H](C)C(=O)N1CCC[C@H]1C(=O)N1CCC[C@H]1C(=O)N1CCC[C@H]1C(=O)N[C@@H](CCC(=O)O)C(=O)NCC(=O)N[C@H](C(=O)NCC(=O)N[C@@H](CCC(=O)O)C(N)=O)[C@@H](C)O [Example 660]
pEC50 [1]: 6.34
pEC50 [2]: 8.13
pEC50 [3]: 8.33
pEC50 [4]: 10.19
pEC50 [5]: 8.90
pEC50 [6]: 7.11

Y[Aib]QGTFTSD[4Pal]SQ[αMeL]LDKK([γGlu-γGlu-C18 diacid])AQ[αMe4Pal]AFIE[αMe4Pal]LIE[Aib]GPSSGAPPPSGEE-NH2 [Example 1121]
pEC50 [1, 7]: 6.25
pEC50 [2, 8]: 8.05
pEC50 [3, 7]: 8.34
pEC50 [4, 8]: 9.94
pEC50 [5, 8]: 8.28
pEC50 [6, 7]: 6.78

H-Y[Aib]QGT[αMePhe(2-F)]TSD[4Pal][αMeS]I[αMeL]LD[Orn]K([γGlu-γGlu-C18 diacid])AQ[αMe4Pal]EFI[dE][αMeY]LIEGGPSSGAPPPEGGGEE-NH2 [Example 1220]
pEC50 [1]: 6.77
pEC50 [2, 9]: 8.80
pEC50 [3]: 9.22
pEC50 [4, 9]: 11.00
pEC50 [5, 9]: 9.17
pEC50 [6]: 7.31

Y[Aib]QGT[αMePhe(2-F)]TSD[4Pal][αMeS]I[αMeL]LD[Orn]K([γGlu-γGlu-C18 diacid])AQ[αMe4Pal]EFI[dE][αMeY]LIEGGPSSGAPPPSGE-NH2 [Example 1150]
pEC50 [1]: 6.79
pEC50 [2, 8]: 8.93
pEC50 [3]: 9.23
pEC50 [4, 8]: 11.16
pEC50 [5, 8]: 9.56
pEC50 [6]: 7.52
